ChEMBL document CHEMBL1124044, “4-N-hydroxy-L-2,4-diaminobutyric acid. A strong inhibitor of glutamine synthetase” (J Med Chem, 1988)

Tests used:
[1] = system: Glutamine synthetase (Glycine max); conditions: at 0.5 mM
[2] = system: Glutamine synthetase (Ovis aries); test: Percent inhibition was measured on Sheep Brain […] at 0.1 mM concentration
[3] = system: Glutamine synthetase (Ovis aries); conditions: at 0.5 mM
[4] = system: Glutamine synthetase (Ovis aries); conditions: at 0.2 mM
[5] = system: Glutamine synthetase (Glycine max); conditions: at 0.1 mM
[6] = system: Glutamine synthetase (Glycine max); conditions: at 0.2 mM
[7] = system: Glutamine synthetase (Glycine max); test: Percent inhibition was measured on Soybean Glutamine synthetase at 0.2 mM concentration
[8] = system: Glutamine synthetase (Ovis aries); test: Percent inhibition was measured on Sheep Brain Glutamine synthetase at 0.5 mM concentration
[9] = system: Glutamine synthetase (Glycine max); test: Percent inhibition was measured on Soybean Glutamine synthetase at 0.5 mM concentration
[10] = system: Glutamine synthetase (Ovis aries); test: Percent inhibition was measured on Sheep Brain Glutamine synthetase at 0.1 mM concentration
[11] = system: Glutamine synthetase (Ovis aries); test: Percent inhibition was measured on Sheep Brain Glutamine synthetase at 0.2 mM concentration

## CNO
[1]
  inhibition: 0%
[2]
  inhibition: 0%
[3]
  inhibition: 8%
[4]
  inhibition: 4%
[5]
  inhibition: 0%
[6]
  inhibition: 0%

## NCC(O)CCC(N)C(=O)O (configuration not stated)
[7]
  inhibition: 9%
[8]
  inhibition: 22%
[9]
  inhibition: 21%
[10]
  inhibition: 5%
[5]
  inhibition: 5%
[11]
  inhibition: 11%
